US11202782B2, “Treatment cancers using a combination comprising PARP inhibitors” (BeiGene, Ltd., priority 2016, dated 2021)

Experiments:
[1] = system: primary human gastric cancer xenograft; experiment: Tumor growth in primary human gastric cancer xenograft model; assay type: in vivo, BALB/c nude mice; details: paclitaxel 15 mg/kg Q4D×3 i.p.; Compound A 12 mg/kg BID p.o.; not statistically different from vehicle
Method: (§1) Tumor tissues surgically removed from a patient with gastric cancer. Within 2 to 4 hours following patient surgery, small fragments of tumor (3×3×3 mm^3) were subcutaneously engrafted into the scapular area of anesthetized NOD/SCID mice. After tumors grew to around 300-1000 mm^3, tumors were surgically removed and fragments were passaged in NOD/SCID mice by subsequent engraftments. Engraftment in BALB/c nude mice was conducted after 3 successfully passages in NOD/SCID mice. The right axilla region of each BALB/C nude mouse was cleaned with 70% ethanol prior to tumor fragments inoculation. Each animal was implanted subcutaneously with a fragment (around 3×3×3 mm^3) of the gastric cancer in the right flank via 20-gauge trocar needle.
All doses were based on free-base weight.
After implantation, primary tumor volume was measured in two dimensions using a calliper. Tumor volume was calculated using the formula: V=0.5×(a×b^2) where a and b are the long and short diameters of the tumor, respectively. Tumor growth inhibition (TGI) was calculated using the following formula:
[formula] Statistical analysis was conducted using the student T-test. P<0.05 was considered statistically significant.

[2] = system: Primary tumor cells from a patient with colorectal cancer cultured in Matrigel co-cultured with allogeneic human PBMCs; experiment: IFN-γ release in primary human tumor cells (Matrigel)/PBMC co-culture with EpCAM×CD3 bispecific T cell engager; assay type: cell-based; details: 50 ng/mL EpCAM×CD3 bispecific T cell engager, 72 hours; Compound B 30 nM, Mab-1 1 μg/mL; treatment group divided by control group
Method: After signed the informed consent, healthy human donor's blood was collected and PBMCs were isolated with Ficoll (GE Healthcare, 17-1440-02) according to the manufacturer's protocol with small modification. Briefly, fresh blood was diluted with equivalent volume of 1×DPBS (Gibco®, 14190-144), added equivalent volume of Ficoll into a 50 mL sterile tube, and added diluted blood very carefully onto the surface of the Ficoll. Then centrifuged at 400 g for 40 minutes at room temperature. Carefully removed the upper layer and pipetted the lymphocyte layer to a clean sterile tube, added 3 volumes of 1×DPBS and centrifuge at 200 g for 10 minutes at room temperature. After discarded the supernatant, suspended cells with 10 mL 1×DPBS and washed 2 times more. Suspended cells with 5 mL RPMI-1640 (Gibco®, 22400-089) complete medium (added with 10% fetal bovine serum (Gibco®, 10099-141). […]
Primary tumor cells from a patient with colorectal cancer cultured in Matrigel® were co-cultured with non pre-activated allogeneic human PBMCs, with 50 ng/ml EpCAM×CD3 bispecific T cell engager and with or without an PARP inhibitor named Compound B (30 nM) or an anti-PD-1 antibody named Mab-1 (1 μg/mL), or their combination (named as Mab-1+ Compound B, for short), and cultured for 72 hours. Human IFN-γ in the supernatant of the co-culture system was measured and as the readout (See FIG. 4). […]

[3] = system: primary human SCLC (extensive-stage) xenograft; experiment: Tumor growth in primary human SCLC (extensive-stage) xenograft model; assay type: in vivo, BALB/c nude mice; details: cohort2, E/C 3 cycles then Compound B 5.45 mg/kg BID for 21 days
Method: as §1, with “extensive-stage SCLC.” for “gastric cancer.”, “biopsy, the” for “surgery, small fragments of”, “samples” for “(3×3×3 mm^3)”, “lung” for “gastric”
47 days after implantation, animals bearing tumor were divided to two cohorts, cohort lused smaller tumors for combination setting and cohort 2 used bigger tumors for maintenance setting. In cohort1, animals with mean tumor size of ˜150 mm^3 were assigned into 6 groups with 9 mice per group using a stratified randomization procedure. […]
After implantation, primary tumor volume was measured in two dimensions using a caliper. Tumor volume was calculated using the formula: V=0.5×(a×b^2) where a and b are the long and short diameters of the tumor, respectively. […]
Tumor growth inhibition (TGI) was calculated using the following formula: […]

[4] = Body weight and toxicity in primary human SCLC (extensive-stage) xenograft model; assay type: in vivo, BALB/c nude mice; details: cohort2, Compound B 5.45 mg/kg BID maintenance
Method: 47 days after implantation, animals bearing tumor were divided to two cohorts, cohort lused smaller tumors for combination setting and cohort 2 used bigger tumors for maintenance setting. In cohort1, animals with mean tumor size of ˜150 mm^3 were assigned into 6 groups with 9 mice per group using a stratified randomization procedure. Mice were then treated with vehicle (0.5% methylcellulose) twice daily (BID) or Compound B at 5.45 mg/kg BID for 21 days, or E/C [etoposide at 12 mg/kg (Day1-3)+carboplatin at 60 mg/kg (Day1) of a 7 day cycle] for 3 cycles then vehicle BID for 21 days (Day22-42), or the combination of E/C with Compound B at 0.68, 1.36 or 2.73 mg/kg BID (Day1-4 of the 7 day cycle) for 3 cycles then Compound B maintenance therapy at 5.45 mg/kg BID for 21 days (Day22-42). In cohort2, animals with mean tumor size of ˜400 mm^3 were treated with E/C for 3 cycles first. At day22, 20 animals were assigned into 2 groups with 10 mice per group using a stratified randomization procedure, then treated with vehicle (0.5% methylcellulose) twice daily (BID) for 21 days (Day22-42), or Compound B maintenance therapy at 5.45 mg/kg BID for 21 days (Day22-42). All doses were based on free-base weight.

[5] = Particle size distribution of crystalline sesqui-hydrate; assay type: physicochemical
Method: Compound A-Crude 2 (5.3 Kg) was mixed with a solution of isopropanol (41.6 Kg) and water (15.9 Kg). The mixture was degassed and re-protected under nitrogen and then heated to 60° C. and stirred for 2-4 h until the solid was dissolved completely. The temperature was raised to 70-80° C. and water (143 Kg) was added. The resulting mixture was heated to the internal temperature of 70-80° C. and then the heating was stopped but stirred gently for 16 h. The precipitate was filtered, washed with water (19 Kg) and slurred with water (21 kg) for 2 h. The resulting solid was filtered, washed with water (20 Kg). The filtered solid was dried at the temperature below 45° C. for 24-36 h. Compound A sesqui-hydrate (4.22 kg) was obtained with particle sizes of D90=51.51 um, D50=18.62 um, D10=7.63 um. This range of PSD is almost ideal for formulation development.

PARP1/2 = details: disclosed in WO2013/097225A1; cited from earlier work

SMILES | tumor growth inhibition (TGI) on day 21, single agent [1] | fold changes of IFN-γ [2] | mean tumor volume after maintenance [3] | body weight change during the maintenance phase compared to the E/C treatment group [4] | particle size D10 [5] | particle size D50 [5] | particle size D90 [5] | PARP1/2 inhibitory activities (PARP1/2)
CC(=O)O[C@H]1C(=O)[C@@]2(C)[C@H]([C@H](OC(=O)c3ccccc3)[C@]3(O)C[C@H](OC(=O)[C@H](O)[C@@H](NC(=O)c4ccccc4)c4ccccc4)C(C)=C1C3(C)C)[C@]1(OC(C)=O)CO[C@@H]1C[C@@H]2O [paclitaxel, reference compound] | 31% | – | – | – | – | – | – | –
C[C@]12CCCN1CC1=NNC(=O)c3cc(F)cc4[nH]c2c1c34 [Compound B, (R)-2-fluoro-10a-methyl-7,8,9,10,10a,11-hexahydro-5,6,7a,11-tetraazacyclohepta[def]cyclopenta[a]fluoren-4(5H)-one sesqui-hydrate] | – | 1.08 | 571 mm^3 | no significant body weight change | 7.63 um | 18.62 um | 51.51 um | –
C[C@]12CCCN1CC1=NNC(=O)c3cc(F)cc4[nH]c2c1c34 [Compound A, (R)-2-fluoro-10a-methyl-7,8,9,10,10a,11-hexahydro-5,6,7a,11-tetraazacyclohepta[def]cyclopenta[a]fluoren-4(5H)-one] | 30% | – | – | – | – | – | – | highly selective and potent
